What was measured:
[1] = test system: NADH kinase (the present enzyme); test: Inhibition, activation and stabilization of the present enzyme; type: biochemical, Pichia membranaefaciens
[2] = test system: NADH kinase (the present enzyme); test: Substrate specificity of the present enzyme (NADH kinase); type: biochemical, Pichia membranaefaciens; details: for Relative activity (%): as substrate of the present enzyme, 30° C., 20 minutes, pH 8.5, relative to NADH = 100; for Action of the present enzyme on the substrate (in words): substrate specificity
Protocol: The substrate specificity of the present enzyme was examined under the following reaction conditions.
To 0.9 ml of each of the substrate solutions containing NADH or NAD^+, respectively, shown in Table 1 was added 0.1 ml of 23 U/ml of the present enzyme, and the reaction was carried out at 30° C. for 20 minutes. Then, the reaction was terminated by heat treatment at 100° C. for 2 minutes, and the denatured protein was removed, after which the amount of NADPH or NADP^+ produced by the reaction of the corresponding substrate was measured as follows. As a control solution, there was used a mixture of each substrate solution and the present enzyme in which the reaction had been terminated immediately after mixing them.
With 1 ml of each of the reaction solutions obtained in the above was mixed 1 ml of a color-producing solution consisting of 10 mM G-6-P, 50 mM HEPPS buffer (pH 8.0), 10 mM magnesium chloride, 0.1% bovine serum albumin, 2.5 IU/ml G-6-P dehydrogenase (NADP^+ -dependent), 5 IU/ml diaphorase and 250 μM 2,6-dichlorophenolindophenol. The resulting mixture was immediately introduced into a constant-temperature cuvette of STASAR III spectrophotometer of Gilford and subjected to reaction at 30° C. Simultaneously with the reaction, the change of absorbance at 600 nm was measured with the lapse of time, and the difference (ΔOD600nm /min) between absorbance values 1 minute and 2 minutes after the initiation of the coloration reaction was taken as a measured value. As to the relative activity (%), a measured value (ΔOD600nm /min) obtained by using NAD^+ as substrate was shown as a percentage based on a measured value (ΔOD600nm /min) obtained by using NADH as substrate.

[3] = test system: NADH kinase (the present enzyme); test: Km value (Michaelis constant) of the present enzyme for NADH; type: biochemical, Pichia membranaefaciens; details: 30° C., pH 7.8 (Tris buffer)
Protocol: 0.9 Milliliters of the substrate solution containing NADH shown in Table 2 was preheated to 30° C., after which 0.1 ml of a solution of the present enzyme having an adequate concentration was added, and the reaction was carried out at 30° C. for 20 minutes. Thereafter, the reaction was terminated by heat treatment at 100° C. for 2 minutes, and the denatured protein was removed. Then, the amount of NADPH produced by the reaction of the substrate was measured as follows. As a control solution, there was used a mixture of the substrate solution and the present enzyme in which the reaction had been terminated immediately after mixing them.
With 1 ml of each of the reaction solutions obtained in the above was mixed 1 ml of a color-producing solution having the same composition as that of the color-producing solution described in the above item "Substrate specificity". […] Simultaneously with the reaction, the change of absorbance at 600 nm was measured with the lapse of time, and the difference (ΔOD600nm /min) between absorbance values 1 minute and 2 minutes after the initiation of the coloration reaction was obtained as a measured value. By the use of a calibration curve of ΔOD600nm /min versus NADPH concentration previously prepared using NADPH solutions of known concentrations, the amount of the NADPH produced was calculated from the measured value.

[4] = molecular target: T1, NADH kinase A (Saccharomyces cerevisiae, UniProt Q06892); details: as substrate of NADH kinase A; from reference; cited from earlier work
T1 sequence (Q06892 1-414): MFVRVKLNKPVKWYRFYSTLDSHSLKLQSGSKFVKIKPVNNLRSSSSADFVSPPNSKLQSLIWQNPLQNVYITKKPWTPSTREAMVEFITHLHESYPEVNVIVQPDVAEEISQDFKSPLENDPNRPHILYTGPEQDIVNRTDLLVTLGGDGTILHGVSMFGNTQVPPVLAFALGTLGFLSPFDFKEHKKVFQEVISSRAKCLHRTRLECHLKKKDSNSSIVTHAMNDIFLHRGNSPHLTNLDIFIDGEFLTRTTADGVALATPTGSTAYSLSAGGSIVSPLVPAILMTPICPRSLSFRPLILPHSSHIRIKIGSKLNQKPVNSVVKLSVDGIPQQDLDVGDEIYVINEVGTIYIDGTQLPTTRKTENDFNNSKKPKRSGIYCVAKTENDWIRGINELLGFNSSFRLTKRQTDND

[5] = molecular target: T2, NADH kinase B (Saccharomyces cerevisiae, UniProt Q06892); details: as substrate of NADH kinase B; from reference; cited from earlier work
T2 sequence (Q06892 1-414): T1 sequence (Q06892 1-414)

| SMILES | Stabilization of the present enzyme [1] | Relative activity (%) [2] | Action of the present enzyme on the substrate (in words) [2] | Km [3] | Specificity (relative activity, NADH = 100) [4] | Specificity (relative activity, NADH = 100) [5] |
| --- | --- | --- | --- | --- | --- | --- |
| O[C@H](CS)[C@H](O)CS (racemic) [dithiothreitol] | stabilized | – | – | – | – | – |
| CC(=O)N[C@@H](CS)C(=O)O [N-acetyl-L-cysteine] | stabilized | – | – | – | – | – |
| NC(=O)C1=CN([C@@H]2O[C@H](COP(=O)(O)OP(=O)(O)OC[C@H]3O[C@@H](n4cnc5c(N)ncnc54)[C@H](O)[C@@H]3O)[C@@H](O)[C@H]2O)C=CC1 [NADH] | – | 100% | very high specificity | 27 µM | 100 | 100 |
| NC(=O)c1ccc[n+]([C@@H]2O[C@H](COP(=O)([O-])OP(=O)(O)OC[C@H]3O[C@@H](n4cnc5c(N)ncnc54)[C@H](O)[C@@H]3O)[C@@H](O)[C@H]2O)c1 [NAD^+] | – | 0.9% | hardly acts | – | 1.7 | 1.6 |
